From US20090175848A1, “Modulation of the Cooperativity Between the Ion Channels TRPM5 and TRPA1” (priority 2007, published 2009)

Key:
[1] = tested on: TRPM5-expressing HEK-293 cells (TRPM5-293); assay: FLIPR calcium assay in TRPM5-293 cells; format: cell-based, human; conditions: for effect on AITC calcium response: pre-treatment, then AITC, TRPM5-293 cells
Description: (§1) To create a stably transfected cell line expressing hTRPM5, 1.0×10^6 HEK 293 cells (ATCC, Manassas, Va.) were seeded in 35 mm tissue culture dishes (Falcon, BD Biosciences, Bedford, Mass.) and grown overnight in a 37° C. and 5% CO2 incubator, in culture medium consisting of DMEM, 10% fetal bovine serum (FBS), and penicillin with streptomycin. The next day, the cells were transfected using 4 μg of pcDNA 3.2-hTRPM5 with 7 μl of Lipofectamine 2000 (Invitrogen), following the manufacturer's protocol. After two days in culture, the cells were replated at 1:10 and 1:100 dilution, and from those plates seeded at very low density in 96-well plates to isolate single-cell colonies. To select individual clones, 1 mg/ml Geneticin (Invitrogen) was added to the culture medium. Once stably expressing clones were identified, the concentration of Geneticin was reduced to 0.25 mg/ml for expansion and maintenance. […]
For hTRPM5-293 or HEK293 assays, cells were seeded overnight in poly-D-lysine coated 384-well plates at 15,000 cells per well in 20 μl of media. […] The assay was performed using a fluorometric imaging plate reader (FLIPR-Tetra™, Molecular Devices, Sunnyvale, Calif.), using the excitation 510-545 nm and emission 565-625 nm filter sets. […] The plates were read on the FLIPR® for a total of 3 minutes for a single addition assay and 6 minutes for a 2 addition assay. For single addition assays, baseline fluorescence was obtained on the FLIPR® for 10 seconds followed by addition of each sample by the FLIPR® and read for an additional 2 minutes and 50 seconds. For 2 addition assays, baseline fluorescence was obtained on the FLIPR® for 10 seconds followed by addition of the first sample (e.g. inhibitors, EGTA) by the FLIPR®, read for 2 minutes and 50 seconds, then followed by the addition of AITC and read for another 3 minutes. For ΔRFU measurements, the baseline fluorescence signal (RFUmin) was subtracted from the peak fluorescence signal (RFUmax) at each compound concentration (RFUmax—RFUmin). ΔRFU values for individual concentrations were measured in triplicate, and s.d. reported as error bars.

[2] = tested on: Chinese hamster ovary (CHO) cells expressing TRPM5; assay: FLIPR assay in CHO cells expressing TRPM5; format: cell-based; conditions: TRPM5 expressed in CHO cells
Description: as §1, with “colonies.” for “colonies. To select individual clones, 1 mg/ml Geneticin (Invitrogen) was added to the culture medium. Once stably expressing clones were identified, the concentration of Geneticin was reduced to 0.25 mg/ml for expansion and maintenance.”
For hTRPM5-293 or HEK293 assays, cells were seeded overnight in poly-D-lysine coated 384-well plates at 15,000 cells per well in 20 μl of media. […] The assay was performed using a fluorometric imaging plate reader (FLIPR-Tetra™, Molecular Devices, Sunnyvale, Calif.), using the excitation 510-545 nm and emission 565-625 nm filter sets. […] The plates were read on the FLIPR® for a total of 3 minutes for a single addition assay and 6 minutes for a 2 addition assay. For single addition assays, baseline fluorescence was obtained on the FLIPR® for 10 seconds followed by addition of each sample by the FLIPR® and read for an additional 2 minutes and 50 seconds. […]

[3] = tested on: TRPM5-expressing HEK cells; assay: Whole-cell electrophysiology in TRPM5-expressing HEK cells; format: cell-based, human; conditions: whole-cell voltage clamp, voltage dependence
Description: Whole-cell recordings of TRP channel currents were obtained from acutely trypsinized TRPM5-expressing HEK cells. The bath solution was Hank's Balanced Salt Solution, composed of (mM); 1.2 CaCl2, 0.5 MgCl2-6H2O, 0.4 MgSO4-7H2O, 5.3 KCl, 0.4 KH2PO4, 137.9 NaCl, 0.3 Na2HPO4-7H2O, and 5.5 D-Glucose, with 20 mM HEPES (Invitrogen), pH 7.4 (NaOH). The internal pipette solution contained, in mM: 135 glutamic acid, 8 NaCl, 3 CaCl2, 10 HEPES and 10 EGTA, pH 7.2 (CsOH) (Sigma). Calculated concentration of free calcium in internal solution was 77 nM (MaxChelator, Stanford University). Recording pipettes were pulled using a Flaming/Brown Micropipette Puller (Sutter Instruments), from fire-polished borosilicate glass, to approximately 2 MΩ. Voltage clamp recordings were obtained in whole cell mode using MultiClamp 700B amplifier and Digidata 1322A converter running on Clampex 9.2 software (Axon Instruments). Recordings were performed at room temperature. Series resistance was automatically compensated immediately after the break-in. Data were sampled at 5 kHz and filtered at 1 kHz. AITC was dissolved in bath solution and applied to the cells with a multi-barrel applicator (SF-72, Warner Instruments).

parental HEK-293 cells = assay: FLIPR calcium assay in untransfected cells; format: cell-based, human; conditions: untransfected (parental HEK-293) cells
Description: For hTRPM5-293 or HEK293 assays, cells were seeded overnight in poly-D-lysine coated 384-well plates at 15,000 cells per well in 20 μl of media. For assays of hTrpM5-CHO-M1 assays cells were seeded overnight in tissue culture treated 384-well plates at 10,000 cells per well in 20 μl of media. The assay was performed using a fluorometric imaging plate reader (FLIPR-Tetra™, Molecular Devices, Sunnyvale, Calif.), using the excitation 510-545 nm and emission 565-625 nm filter sets. The cells were loaded with 20 μl/well of Membrane Potential Assay Kit RED dye (Molecular Devices), in a 37° C. and 5% CO2 incubator for 1 hour. To measure intracellular calcium changes, the Calcium 3 dye (Molecular Devices) supplemented with 125 μM was used. […] The plates were read on the FLIPR® for a total of 3 minutes for a single addition assay and 6 minutes for a 2 addition assay. For single addition assays, baseline fluorescence was obtained on the FLIPR® for 10 seconds followed by addition of each sample by the FLIPR® and read for an additional 2 minutes and 50 seconds. For 2 addition assays, baseline fluorescence was obtained on the FLIPR® for 10 seconds followed by addition of the first sample (e.g. inhibitors, EGTA) by the FLIPR®, read for 2 minutes and 50 seconds, then followed by the addition of AITC and read for another 3 minutes. […]

[4] = tested on: TRPM5-expressing HEK-293 cells (TRPM5-293); assay: FLIPR membrane potential assay in TRPM5-293 cells; format: cell-based, human; conditions: for effect on AITC membrane potential response: pre-treatment, then AITC, TRPM5-293 cells
Description: To create a stably transfected cell line expressing hTRPM5, 1.0×10^6 HEK 293 cells (ATCC, Manassas, Va.) were seeded in 35 mm tissue culture dishes (Falcon, BD Biosciences, Bedford, Mass.) and grown overnight in a 37° C. and 5% CO2 incubator, in culture medium consisting of DMEM, 10% fetal bovine serum (FBS), and penicillin with streptomycin. The next day, the cells were transfected using 4 μg of pcDNA 3.2-hTRPM5 with 7 μl of Lipofectamine 2000 (Invitrogen), following the manufacturer's protocol. After two days in culture, the cells were replated at 1:10 and 1:100 dilution, and from those plates seeded at very low density in 96-well plates to isolate single-cell colonies. To select individual clones, 1 mg/ml Geneticin (Invitrogen) was added to the culture medium. Once stably expressing clones were identified, the concentration of Geneticin was reduced to 0.25 mg/ml for expansion and maintenance. Clones were selected on the basis of their response to ATP (Sigma) and lonomycin (Sigma) in the FLIPR® assay using the Membrane Potential Assay Kit RED (Molecular Devices). Stable cell lines in chinese hamster ovary cells (CHO-M1) were created similarly except that 5.0×10^5 cells were plated in 35 mm dishes overnight and the selection medium consisted of F-12K/Ham's, 10% fetal bovine serum (FBS), 100 μg/ml of Geneticin, and 10 μg/ml Blasticidin S HCl, and penicillin with streptomycin. Stably expressing clones were maintained in the same medium except that the Balsticidin S HCl concentration was reduced to 5 μg/ml.
For hTRPM5-293 or HEK293 assays, cells were seeded overnight in poly-D-lysine coated 384-well plates at 15,000 cells per well in 20 μl of media. For assays of hTrpM5-CHO-M1 assays cells were seeded overnight in tissue culture treated 384-well plates at 10,000 cells per well in 20 μl of media. The assay was performed using a fluorometric imaging plate reader (FLIPR-Tetra™, Molecular Devices, Sunnyvale, Calif.), using the excitation 510-545 nm and emission 565-625 nm filter sets. The cells were loaded with 20 μl/well of Membrane Potential Assay Kit RED dye (Molecular Devices), in a 37° C. and 5% CO2 incubator for 1 hour. To measure intracellular calcium changes, the Calcium 3 dye (Molecular Devices) supplemented with 125 μM was used. The plates were equilibrated to room temperature for 15 minutes before the start of the assay. The compounds allyl isothiocyanate (AITC), cinnamaldehyde, EGTA, ionomycin, U73122, U73144 were purchased from Sigma-Aldrich (St. Louis, Mo.) and stocks prepared in DMSO. Samples were diluted in HBSS with 20 mM HEPES prior to the assay and 10 μl per well was added to the assay plate. The plates were read on the FLIPR® for a total of 3 minutes for a single addition assay and 6 minutes for a 2 addition assay. For single addition assays, baseline fluorescence was obtained on the FLIPR® for 10 seconds followed by addition of each sample by the FLIPR® and read for an additional 2 minutes and 50 seconds. For 2 addition assays, baseline fluorescence was obtained on the FLIPR® for 10 seconds followed by addition of the first sample (e.g. inhibitors, EGTA) by the FLIPR®, read for 2 minutes and 50 seconds, then followed by the addition of AITC and read for another 3 minutes. For ΔRFU measurements, the baseline fluorescence signal (RFUmin) was subtracted from the peak fluorescence signal (RFUmax) at each compound concentration (RFUmax—RFUmin). ΔRFU values for individual concentrations were measured in triplicate, and s.d. reported as error bars.

[5] = agonist added to TRPM5-293 cells, FLIPR

| Compound | intracellular calcium levels [1, 5] | activation of TRPM5 [2] | desensitization of the AITC-activated current [3] | intracellular calcium response (parental HEK-293 cells) | EC50 ([4]; Homo sapiens, HEK293, read-out: EC50 (tested concentration closest to it)) | EC90 ([4]; Homo sapiens, HEK293, read-out: EC90 (tested concentration closest to it)) | membrane potential response [4, 5] | effect on AITC calcium response [1] | effect on AITC membrane potential response [4] | effect on ionomycin membrane potential response ([4]; ionomycin as stimulus) |
| --- | --- | --- | --- | --- | --- | --- | --- | --- | --- | --- |
| C=CCN=C=S [AITC, allyl isothiocyanate] | increase in intracellular calcium levels | does not activate | delayed at positive membrane potentials | no response | ~3 µM | ~33 µM | strong membrane potential response |  |  |  |
| O=C(O)CN(CCOCCOCCN(CC(=O)O)CC(=O)O)CC(=O)O [EGTA] |  |  |  |  |  |  |  | inhibited the calcium response | altered the membrane potential |  |
| COc1ccc2c(c1)CC[C@@H]1[C@@H]2CC[C@]2(C)[C@@H](NCCCCCCN3C(=O)C=CC3=O)CC[C@@H]12 [U73122] |  |  |  |  |  |  |  | enhanced | enhanced | enhances |
